Structures can show the parent of a compound that is named as a salt. Where two headings read alike, the source gives them in different places.
Target: T1, mouse TLR7 (Mus musculus, UniProt P58681)
T1 construct: expressed in transfected cells; host or cells: Ba/F3 cells (provided by Prof. Kensuke Miyake, University of Tokyo)
T1 sequence (P58681 27-1050): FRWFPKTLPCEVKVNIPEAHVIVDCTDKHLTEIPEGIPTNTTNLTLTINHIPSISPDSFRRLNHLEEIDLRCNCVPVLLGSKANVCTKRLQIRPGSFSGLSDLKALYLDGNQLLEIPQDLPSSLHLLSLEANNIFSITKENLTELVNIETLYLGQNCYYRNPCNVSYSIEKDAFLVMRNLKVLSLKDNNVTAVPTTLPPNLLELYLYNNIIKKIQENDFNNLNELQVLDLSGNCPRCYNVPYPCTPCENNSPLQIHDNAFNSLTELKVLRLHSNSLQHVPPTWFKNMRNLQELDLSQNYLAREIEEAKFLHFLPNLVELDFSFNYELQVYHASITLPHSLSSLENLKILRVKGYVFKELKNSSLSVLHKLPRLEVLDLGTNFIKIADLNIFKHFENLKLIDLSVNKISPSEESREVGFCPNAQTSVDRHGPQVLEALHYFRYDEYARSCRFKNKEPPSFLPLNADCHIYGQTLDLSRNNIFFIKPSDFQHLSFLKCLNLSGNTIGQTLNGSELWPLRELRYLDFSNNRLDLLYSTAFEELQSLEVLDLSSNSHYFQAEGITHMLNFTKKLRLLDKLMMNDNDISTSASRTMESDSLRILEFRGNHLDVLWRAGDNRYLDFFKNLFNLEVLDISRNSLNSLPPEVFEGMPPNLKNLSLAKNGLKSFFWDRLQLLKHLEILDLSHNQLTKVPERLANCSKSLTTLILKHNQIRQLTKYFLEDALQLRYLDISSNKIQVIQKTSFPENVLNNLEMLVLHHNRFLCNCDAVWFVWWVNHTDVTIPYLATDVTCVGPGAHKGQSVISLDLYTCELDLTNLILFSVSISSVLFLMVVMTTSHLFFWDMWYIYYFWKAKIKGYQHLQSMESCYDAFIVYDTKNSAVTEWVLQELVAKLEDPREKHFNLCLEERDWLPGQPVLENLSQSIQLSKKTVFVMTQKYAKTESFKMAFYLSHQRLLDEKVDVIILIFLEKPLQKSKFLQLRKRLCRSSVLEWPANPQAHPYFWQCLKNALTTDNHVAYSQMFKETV
Experiment: Inhibition of TLR7 activation in mouse TLR7-expressing NF-κB-GFP reporter Ba/F3 cells
Assay type: cell-based
Details: for TLR7 activation inhibitory activity, comparison in words: from IC50 of Table 3 / Table 5
Text: Mouse TLR7-expressing reporter cells (Ba/F3 cells) were used to evaluate inhibition of TLR7 activation in each derivative and CB-7. These cells were provided by Professor Kensuke Miyake (Department of Infection Genetics, Institute of Medical Science, University of Tokyo). These cells have been transfected with a reporter gene that connects GFP gene downstream of the promoter region of NF-κB. Therefore, the expression of GFP is enhanced by the addition of a ligand for TLR7 expressed by the cells. The fluorescence intensity of GFP was attenuated by the addition of each derivative, and the inhibition of TLR7 activation by each derivative was evaluated as an indicator.
Loxoribine (Alexis Biochemicals) was used as the ligand for mouse TLR7. Gardiquimod (Invivogen) was used as the ligand for human TLR7.
Ba/F3 cells cultured in RPMI 1640 medium containing 10% (v/v) fetal calf serum (FCS), 50 U/mL penicillin, 50 μg/mL streptomycin, 2 mM L-glutamine, […] 2-mercaptoethanol, 1 ng/mL interleukin-3 were aliquoted into 96-well plates so that the number of cells per well was 1.0×10^5 cells/100 μL. 50 μL of each derivative or CB-7, prepared to final concentrations of 1, 5, 10, 25, 50, and 100 µM, was added to each well. 96-well plates were incubated at 37° C. for 30 minutes in the presence of 5% CO2. Next, 250 μg/mL Roxoribin was added to each well and incubated for 18 hours. At the end of incubation, cells were washed with PBS (FACS buffer) containing 2.5% (v/v) FCS and suspended in 200 μL of FACS buffer containing 25 μg/mL […] for each cell. GFP fluorescence intensities of the cells were analyzed by flow cytometry. Flow cytometry measurement was performed on a FACSCanto™ II (Becton Dickinson) and data were analyzed with FlowJo software (Tree Star). The MFI (%) upon stimulation with roxoribin in the presence of […] derivatives or CB-7 was calculated using the MFI upon stimulation with roxoribin alone as 100%, and then IC50 (chemical compound concentration that inhibits activity by 50%) was calculated by logistic regression analysis.
The evaluation of the TLR7 activation inhibition by B2-24-4-5A·HCOOH was performed by the method described in Example 2. CB-7 and B2-24-4·HCl were used as controls.

[1] = Example 2, Ba/F3 reporter cells, loxoribine stimulation 18 hours, GFP MFI, read-out: IC50 of CB-7 derivatives with modified Areas a and b

| SMILES | IC50 [1] [nM] | TLR7 activation inhibitory activity, comparison in words | IC50 (Example 5, Table 5, method of Example 2, read-out: IC50) [nM] |
| --- | --- | --- | --- |
| C=CC[C@]1(CO)CC[C@@H](C(=C)C)[C@H](c2ccc(OCCCO)cc2)C1 [B2-28] | 1660 | higher TLR7 activation inhibitory activity than CB-7 | – |
| C=C[C@]1(CO)CC[C@@H](C(=C)C)[C@H](c2ccc(-c3ccccc3)cc2)C1 [B2-18] | > 50000 | – | – |
| C=C(C)[C@@H]1CCC(O)(CNS(C)(=O)=O)C[C@H]1c1ccc(OC)cc1 (some centres unmarked) [B2-3A] | > 10000 | – | – |
| C=C[C@]1(CO)CC[C@@H](C(=C)C)[C@H](c2ccc(COCCOC)cc2)C1 [B2-13] | 910 | higher TLR7 activation inhibitory activity than CB-7 | – |
| C=C[C@]1(CO)CC[C@@H](C(=C)C)[C@H](c2ccc(CN3CCC(F)(F)CC3)cc2)C1 [B2-24-1] | 1050 | higher TLR7 activation inhibitory activity than CB-7 | – |
| C=CC[C@]1(CO)CC[C@@H](C(=C)C)[C@H](c2ccc(OCC(C)CO)cc2)C1 (some centres unmarked) [B2-29] | 1740 | higher TLR7 activation inhibitory activity than CB-7 | – |
| C=C(C)[C@@H]1CC[C@]2(COC(=O)C2)C[C@H]1c1ccc(COCCOC)cc1 [B2-5A-4] | 2570 | higher TLR7 activation inhibitory activity than CB-7 | – |
| C=C[C@]1(CO)CC[C@@H](C(=C)C)[C@H](c2ccc(-c3ccc(OC)cc3)cc2)C1 [B2-23] | > 100000 | – | – |
| C=C(C)[C@@H]1CC[C@@](CO)(CC(=O)N(C)C)C[C@H]1c1ccc(OC)cc1 [B2-6] | > 100000 | – | – |
| C=C[C@]1(CO)CC[C@@H](C(=C)C)[C@H](c2ccc(CN3CC(F)(F)C3)cc2)C1 [B2-24-3] | 1260 | higher TLR7 activation inhibitory activity than CB-7 | – |
| C=C[C@]1(CO)CC[C@@H](C(=C)C)[C@H](c2ccc3ccccc3c2)C1 [B2-19] | > 100000 | – | – |
| C=C[C@]1(CC)CC[C@@H](C(=C)C)[C@H](c2ccc(CN(CC)CC)cc2)C1 [B2-22] | 310 | higher TLR7 activation inhibitory activity than CB-7 | – |
| C=C(C)[C@@H]1CC[C@]2(COC(=O)C2)C[C@H]1c1ccc(CN2CCCC2)cc1 [B2-5A-9] | 300 | higher TLR7 activation inhibitory activity than CB-7 | – |
| C=C(C)[C@@H]1CC[C@]2(COC(=O)C2)C[C@H]1c1ccc2ccccc2c1 [B2-5A-1] | > 100000 | – | – |
| C=C(C)[C@@H]1CC[C@@](CO)(CC(=O)N2CCOCC2)C[C@H]1c1ccc(OC)cc1 [B2-6-7] | 9360 | – | – |
| C=C(C)[C@@H]1CCC(O)(CN(C)C)C[C@H]1c1ccc(OC)cc1 (some centres unmarked) [B2-2A] | > 100000 | – | – |
| C=C(C)[C@@H]1CC[C@]2(COC(=O)C2)C[C@H]1c1ccc(CN(CC)CC)cc1 [B2-5A-6] | 210 | higher TLR7 activation inhibitory activity than CB-7 | – |
| C=C(C)[C@@H]1CC[C@@](COC)(CC(=O)O)C[C@H]1c1ccc(OC)cc1 [B2-5B] | > 100000 | – | – |
| C=C(C)[C@@H]1CC[C@](CC(=O)O)(C(=O)OC)C[C@H]1c1ccc(OCCCO)cc1 [B2-5A-7-1] | > 10000 | – | – |
| C=C(C)[C@@H]1CC[C@@](CO)(CCN(C)C)C[C@H]1c1ccc(OC)cc1 [B2-6A] | > 100000 | – | – |
| C=C[C@]1(CO)CC[C@@H](C(=C)C)[C@H](c2ccc(CN3CCOCC3)cc2)C1 [B2-24-2] | 710 | higher TLR7 activation inhibitory activity than CB-7 | – |
| C=C(C)[C@@H]1CC[C@]2(COC(=O)C2)C[C@H]1c1ccc(OCCCO)cc1 [B2-5A-7] | 2500 | higher TLR7 activation inhibitory activity than CB-7 | – |
| C=C[C@]1(CO)CC[C@@H](C(=C)C)[C@H](c2ccc(COCCCO)cc2)C1 [B2-26] | 1260 | higher TLR7 activation inhibitory activity than CB-7 | – |
| C=C[C@]1(CO)CC[C@@H](C(=C)C)[C@H](c2ccc(CN3CCNCC3)cc2)C1 [B2-24-4•HCl] | 87 | – | 167 |
| C=C(C)[C@@H]1CCC(=O)C[C@H]1c1ccc(OC)cc1 [I-7(Intermediate)] | > 100000 | – | – |

Source: patent publication US12410157B2, “Compound useful as toll-like receptor 7 activation inhibitor” (TOYAMA PREFECTURAL UNIVERSITY, priority 2020, dated 2025)
